Read-outs that look alike come from different tables or passages of the source.
What was measured:
ROCK1 = ROCK1 (Homo sapiens (Human), UniProt Q13464); test: Z-Lyte FRET kinase assay, ROCK1; format: biochemical
Source text: (§1) Kinase Assay. A robust FRET-based, enzyme-coupled assay format, Z-Lyte® Kinase Assay Ser/[…] Peptide Kit (Invitrogen, cat. PV3793), was employed in this study to monitor inhibition of ROCK1 (Invitrogen, cat. PV3691) and ROCK2 (Invitrogen, cat. PV3759) enzyme activities. […] The substrate contains both coumarin and fluorescein and only uncleaved […] substrate will undergo FRET. […] A known inhibitor, Y-27632 (Tocris Bioscience, cat. 1254), is used as a control compound.

ROCK2 [1] = target: T1, ROCK2 (Homo sapiens (Human), UniProt O75116); test: Z-Lyte FRET kinase assay, ROCK2; format: biochemical
Source text: as §1

ROCK2 [2] = target: T1, ROCK2; details: different assay conditions; read-out: ROCK 2 IC50 (previously reported); cited from earlier work
[3] = tested on: phosphorylation of MLC2 (ROCK substrate) in MDA-MB-231 cells; test: Western blot of MLC2 phosphorylation in MDA-MB-231 breast cancer cells; format: cell-based, human; details: 1 hr, MDA-MB-231, FIG. 4
Procedure: Western Blot Analysis. MDA-MB-468, MDA-MB-231, MCF-7, DU-145, H460, A549, HT29 and HCT116 cells (ATCC, Rockville, Md., USA) were plated in 6-well tissue culture plate. The cells were then treated next day with different concentrations of the RKIs for 1 h. After incubation, the cells were harvested, lysed, quantified and blotted for P-MLC2 (Cat no. 3671S), total-MLC2 (Cat no. 3672S), P-MEK (S298) (Cat no. 9128S), total-MEK (Cat no. 9122S), P-S6 (Cat no. 2155S), total-S6 (2217S), P-Erk (Cat no. 9101L), total Erk (Cat no. 9102L), P-Akt (Cat no. 9271L), total Akt (Cat no. 9272L) (Cell Signaling, Danvers, Mass., USA) and tubulin (Cat no. 5168) (Sigma, St Louis, Mo., USA) antibodies as described by us previously

ROCK2 [4] = target: T1, ROCK2; details: Feng et al. 2008; read-out: ROCK2 enzymatic activity IC50 (reported); cited from earlier work
Aurora-A = Aurora-A (Homo sapiens (Human), UniProt O14965); test: Aurora-A inhibition (selectivity); format: biochemical; details: FIG. 2
MDA-MB-231 cells [5] = test: Apoptosis by caspase 3 activation and PARP cleavage; format: cell-based, human; details: up to 30 mM (so in the source)
MDA-MB-231 cells [6] = test: Soft agar anchorage-independent growth assay; format: cell-based, human
Procedure: Soft Agar Assay. MDA-MB-231 cells were seeded in a 12-well tissue culture plate at 1200 cells per well in regular growth media and 0.3% agar. The cells were treated with different doses of RKI-11 and RKI-18, allowed to grow for 4 weeks, after which the colonies were stained overnight with 1 mg/ml MTT and counted.

MDA-MB-231 cells [7] = test: Matrigel Transwell invasion assay; format: cell-based, human; details: for inhibition of invasion (figure legend): FIG. 8
Procedure: Invasion Assay. Invasion assay was performed in Corning Transwell inserts coated with Matrigel. MDA-MB-231 cells were seeded at 3.5_105 and allowed to grow overnight in a 6-well plate. The cells were treated with either vehicle or different doses of RKIs for 24 h. After treatment, the cells were trypsinized, resuspended and plated in the inserts. The bottom chamber contained 20% FBS as the ‘chemoattractant’. The cells were kept in the incubator for 48 h. After incubation, the cells were stained and membrane was quantified.

NIH 3T3 cells = test: Cell morphology assay (phalloidin staining) in starved NIH 3T3 cells; format: cell-based; set-up: dose or concentration left out as unconfirmed; details: starved NIH 3T3, FIG. 6
Procedure: Cell Morphology Assay. NIH 3T3 cells were plated at 8000 cells per well in 8-chamber slide in serum-free media (serum starvation) for 24 h. After serum starvation, the cells were treated with vehicle or the RKIs for 1 h. After treatment, the cells were stimulated with […] LPA, 200 ng/ml bradykinin or 30 ng/ml PDGF for 30 min. After stimulation, the cells were fixed with 4% paraformaldehyde, permeabilized using 0.1% Triton X-100 and stained with Texas-Red phalloidin (Cat no. T7471) (Invitrogen, Eugene, Oreg., USA) and DAPI (40,6 diamidino-2-phenylindole: counterstains DNA) (Cat no. H-1200; Vector Laboratories, Burlingame, Calif., USA). The cells were imaged using Zeiss Upright Fluorescence Microscope.

MDA-MB-231 cells [8] = test: MTT assay, anchorage-dependent proliferation; format: cell-based, human
Procedure: MTT Assay. MTT assay was performed to determine the effects of RKIs on anchoragedependent cell proliferation. Briefly, cells were plated in a 96-well tissue culture plate (1200 cells per well) and incubated for 24 h. After incubation, the cells were treated with vehicle or increasing concentrations of RKI-11 or RKI-18 ([…]). After 72 h incubation, freshly prepared MTT (2 mg/ml) was added to each well and incubated for 3 h. After incubation, the plates were read at 540 nm.

MDA-MB-231 cells [9] = test: Wound-healing scratch migration assay; format: cell-based, human; details: for inhibition of migration (wound-healing scratch assay): FIG. 8a
Procedure: Wound-Healing-Migration Assay. MDA-MB-231 cells were seeded at 4_105 cells per well in a 6-well plate and allowed to grow overnight at 37 1C and 5% CO2. The cells were starved for 24 h and scratched. The cells were then treated with different concentrations of RKIs in regular growth media for 24 h. Images of the scratch were acquired at 0 h and 24 h.

Chain of ROCK1 (Q13464 whole entry): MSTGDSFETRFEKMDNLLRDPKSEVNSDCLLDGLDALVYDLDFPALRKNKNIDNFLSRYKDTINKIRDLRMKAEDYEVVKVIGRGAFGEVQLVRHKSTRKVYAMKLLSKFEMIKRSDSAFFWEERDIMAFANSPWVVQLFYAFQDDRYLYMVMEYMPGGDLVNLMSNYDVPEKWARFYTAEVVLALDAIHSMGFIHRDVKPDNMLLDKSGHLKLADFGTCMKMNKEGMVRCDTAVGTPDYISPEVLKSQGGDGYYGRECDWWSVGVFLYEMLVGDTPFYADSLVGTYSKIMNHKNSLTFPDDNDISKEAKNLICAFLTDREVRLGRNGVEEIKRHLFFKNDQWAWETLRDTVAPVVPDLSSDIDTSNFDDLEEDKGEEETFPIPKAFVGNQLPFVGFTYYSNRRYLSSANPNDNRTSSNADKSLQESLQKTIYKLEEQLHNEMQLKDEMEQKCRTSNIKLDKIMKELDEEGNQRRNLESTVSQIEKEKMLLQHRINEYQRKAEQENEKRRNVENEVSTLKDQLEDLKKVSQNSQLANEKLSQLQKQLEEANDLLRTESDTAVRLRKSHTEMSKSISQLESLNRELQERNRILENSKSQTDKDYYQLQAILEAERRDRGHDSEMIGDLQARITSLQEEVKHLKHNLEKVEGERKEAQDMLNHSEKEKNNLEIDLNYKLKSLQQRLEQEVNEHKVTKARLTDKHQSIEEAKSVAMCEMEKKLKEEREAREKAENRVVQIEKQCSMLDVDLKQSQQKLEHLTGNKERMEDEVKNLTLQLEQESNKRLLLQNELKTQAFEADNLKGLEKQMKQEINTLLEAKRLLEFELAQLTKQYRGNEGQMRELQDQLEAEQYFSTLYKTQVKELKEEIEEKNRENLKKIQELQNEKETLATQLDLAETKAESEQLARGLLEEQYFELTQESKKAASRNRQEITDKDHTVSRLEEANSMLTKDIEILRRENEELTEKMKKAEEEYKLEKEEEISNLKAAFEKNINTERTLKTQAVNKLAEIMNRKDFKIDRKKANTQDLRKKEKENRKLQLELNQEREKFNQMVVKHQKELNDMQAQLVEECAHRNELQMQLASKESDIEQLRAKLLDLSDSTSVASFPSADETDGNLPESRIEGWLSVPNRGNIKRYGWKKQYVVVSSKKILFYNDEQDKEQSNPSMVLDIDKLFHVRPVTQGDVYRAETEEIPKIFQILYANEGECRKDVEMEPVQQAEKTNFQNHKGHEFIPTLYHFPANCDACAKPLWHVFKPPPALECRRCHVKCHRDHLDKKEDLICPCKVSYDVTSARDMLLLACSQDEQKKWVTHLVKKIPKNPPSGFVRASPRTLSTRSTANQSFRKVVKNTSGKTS
Chain of Aurora-A (O14965 whole entry): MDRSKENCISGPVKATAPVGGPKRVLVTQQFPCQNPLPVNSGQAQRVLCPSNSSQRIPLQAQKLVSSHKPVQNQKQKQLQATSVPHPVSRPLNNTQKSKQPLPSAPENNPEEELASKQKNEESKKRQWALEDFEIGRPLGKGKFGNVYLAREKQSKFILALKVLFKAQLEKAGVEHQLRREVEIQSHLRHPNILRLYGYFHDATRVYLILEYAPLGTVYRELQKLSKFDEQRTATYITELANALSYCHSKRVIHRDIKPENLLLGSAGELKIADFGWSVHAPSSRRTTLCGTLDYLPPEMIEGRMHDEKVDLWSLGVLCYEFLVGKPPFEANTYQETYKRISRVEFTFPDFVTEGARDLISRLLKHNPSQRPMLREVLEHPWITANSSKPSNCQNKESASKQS
T1 sequence (O75116 whole entry, species assumed): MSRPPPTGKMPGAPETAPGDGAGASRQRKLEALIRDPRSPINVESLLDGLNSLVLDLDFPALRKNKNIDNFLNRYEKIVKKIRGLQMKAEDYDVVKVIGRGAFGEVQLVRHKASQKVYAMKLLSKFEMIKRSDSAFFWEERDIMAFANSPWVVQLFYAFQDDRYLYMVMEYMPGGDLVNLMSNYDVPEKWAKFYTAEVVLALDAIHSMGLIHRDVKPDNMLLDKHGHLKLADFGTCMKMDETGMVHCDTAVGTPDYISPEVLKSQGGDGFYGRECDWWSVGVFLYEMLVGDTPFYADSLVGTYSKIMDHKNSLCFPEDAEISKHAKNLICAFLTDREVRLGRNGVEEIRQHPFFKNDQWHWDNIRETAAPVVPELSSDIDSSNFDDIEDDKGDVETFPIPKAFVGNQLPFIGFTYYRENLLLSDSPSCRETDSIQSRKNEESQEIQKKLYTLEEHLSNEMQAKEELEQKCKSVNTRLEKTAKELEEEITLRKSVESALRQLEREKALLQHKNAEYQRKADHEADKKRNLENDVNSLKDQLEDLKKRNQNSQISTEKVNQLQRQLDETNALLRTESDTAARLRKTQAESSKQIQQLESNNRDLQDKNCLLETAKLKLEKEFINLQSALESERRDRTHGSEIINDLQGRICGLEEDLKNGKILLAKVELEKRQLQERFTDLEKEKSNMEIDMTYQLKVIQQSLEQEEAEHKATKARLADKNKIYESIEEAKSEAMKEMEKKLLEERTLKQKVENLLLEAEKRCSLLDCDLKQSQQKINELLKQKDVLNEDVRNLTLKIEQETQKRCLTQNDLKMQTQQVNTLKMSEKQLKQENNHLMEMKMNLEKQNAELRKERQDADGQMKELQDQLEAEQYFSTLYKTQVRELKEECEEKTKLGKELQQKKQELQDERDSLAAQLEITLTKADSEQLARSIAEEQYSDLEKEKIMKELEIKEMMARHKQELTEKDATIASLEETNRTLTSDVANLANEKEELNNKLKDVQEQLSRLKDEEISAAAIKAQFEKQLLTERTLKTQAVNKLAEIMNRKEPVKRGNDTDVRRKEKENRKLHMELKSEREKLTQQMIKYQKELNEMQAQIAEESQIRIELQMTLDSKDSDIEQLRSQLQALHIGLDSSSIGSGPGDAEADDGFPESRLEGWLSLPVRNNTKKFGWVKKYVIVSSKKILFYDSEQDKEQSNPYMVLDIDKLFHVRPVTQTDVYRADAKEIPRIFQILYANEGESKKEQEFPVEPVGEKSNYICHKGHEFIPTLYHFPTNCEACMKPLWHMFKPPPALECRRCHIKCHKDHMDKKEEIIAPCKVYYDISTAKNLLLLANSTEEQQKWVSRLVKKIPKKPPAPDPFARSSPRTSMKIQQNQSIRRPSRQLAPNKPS

Row | Structure (SMILES) | IC50 (ROCK1; triplicate experiments) [nM] | IC50 (ROCK2 [1]; triplicate experiments) [nM] | further results
1 | O=C(NCc1ccccc1)Nc1ccc2[nH]ncc2c1 [Compound 12, 1-Benzyl-3-(1H-indazol-5-yl)urea] | 14000 | 5500 ± 3100 | IC50 (ROCK2 [2]): 0.26 µM
2 | O=C(Nc1nc(-c2ccncc2)cs1)C1COc2ccccc2O1 (stereo not shown) [CID5056270, reference compound] | – | – | IC50 (ROCK1; values in nM): 13 nM; IC50 (ROCK2 [4]): < 0.003 µM; IC50 (Aurora-A): > 100 µM; IC50 (ROCK2 [1]; values in nM): 0.56 nM
3 | O=C(NCCc1ccccc1)Nc1ccc2[nH]ncc2c1 [Compound 18, 1-(1H-Indazol-5-yl)-3-phenethylurea] | – | – | induction of apoptosis (caspase 3 activation and PARP cleavage) (MDA-MB-231 cells [5]): did not induce apoptosis; inhibition of anchorage-independent growth (figure legend) (MDA-MB-231 cells [6]; MDA-MB-231, FIG. 7): inhibits; inhibition of invasion (figure legend) (MDA-MB-231 cells [7]): inhibits; LPA-induced stress fiber formation (NIH 3T3 cells; listed as RKI-18): inhibits; PDGF-induced lamelipodia formation (NIH 3T3 cells; listed as RKI-18): inhibits; bradykinin-induced filopodia formation (NIH 3T3 cells; listed as RKI-18): inhibits; IC50 (MDA-MB-231 cells [8]; Homo sapiens, MDA-MB-231, 72 h, unit given as mM): 0.032 mM; potency at anchorage-dependent proliferation compared to anchorage-independent growth (MDA-MB-231 cells [8]; MDA-MB-231): four-fold less potent; inhibition of migration (figure legend) (MDA-MB-231 cells [9]; FIG. 8): inhibits; inhibition of migration (wound-healing scratch assay) (MDA-MB-231 cells [9]; concentration-dependent manner starting at 3 mM (so in the source)): inhibited the migration; P-MLC2 levels ([3]; 10 μM): greatly decreased
4 | O=C(Nc1ccccc1)Nc1ccc2[nH]ncc2c1 [Compound 11, 1-(1H-Indazol-5-yl)-3-phenylurea] | 157000 | 62000 | effect on anchorage independent growth (MDA-MB-231 cells [6]; at 60 mM (so in the source)): little effect; inhibition of invasion (figure legend) (MDA-MB-231 cells [7]): not; effect on cell invasion (MDA-MB-231 cells [7]; at 60 mM (so in the source), FIG. 8b): no effect; LPA-induced stress fiber formation (NIH 3T3 cells): not; bradykinin-induced filopodia formation (NIH 3T3 cells): not; inhibition of migration (wound-healing scratch assay) (MDA-MB-231 cells [9]; at 60 mM (so in the source)): did not inhibit
5 | Nc1ccc2[nH]ncc2c1 [Compound 8, 5-Aminoindazole] | – | – | IC50 (ROCK1): 181000 nM; IC50 (ROCK2 [1]): 120000 nM
6 | O=C(NCC(O)c1ccccc1)Nc1ccc2[nH]ncc2c1 (stereo not shown) [Compound 15, 1-(2-Hydroxy-2-phenylethyl)-3-(1H-indazol-5-yl)urea] | 2900 ± 800 | – | IC50 (ROCK2 [1]): 1500 ± 400 nM
7 | O=C(Nc1ccncc1)c1cccnc1 [Compound 3, N-(Pyridin-4-yl)nicotinamide] | 75500 | 55900 ± 11300 | –
8 | O=C(Nc1ccncc1)c1cncc(Br)c1 [Compound 5, 5-Bromo-N-(pyridin-4-yl)nicotinamide] | 270000 ± 51000 | 357000 ± 35300 | –
9 | O=C(Nc1ccncc1)c1cnccc1Cl [Compound 4, 4-Chloro-N-(pyridin-4-yl)nicotinamide] | 72500 ± 6800 | 221000 ± 25700 | –
10 | CN(C)C(=O)Nc1ccc2[nH]ncc2c1 [Compound 10, 3-(1H-Indazol-5-yl)-1,1-dimethylurea] | 59000 | 36100 ± 5900 | –
11 | CN(CCc1ccccc1)C(=O)Nc1ccc2[nH]ncc2c1 [Compound 13, 3-(1H-Indazol-5-yl)-1-methyl-1-phenethylurea] | 21500 ± 7300 | 7500 ± 1700 | –

Now from value to compound, other results behind:

Row | IC50 (ROCK1; triplicate experiments) [nM] | IC50 (ROCK2 [1]; triplicate experiments) [nM] | Structure (SMILES) | further results
12 | 2610 ± 410 | 19800 ± 3290 | O=C(NCCc1ccccc1)Nc1ccc(-c2ccncc2)cc1 [Compound 25, 1-Phenethyl-3-(4-(pyridin-4-yl)phenyl)urea] | –
13 | 2460 ± 550 | 1070 | O=C(NCCCc1ccccc1)Nc1ccc2[nH]ncc2c1 [Compound 19, 1-(1H-indazol-5-yl)-3-(3-phenylpropyl)urea] | –
14 | 31000 ± 10500 | 32900 ± 4670 | O=C(Nc1ccc(-c2ccncc2)cc1)N[C@H](CO)Cc1ccccc1 [Compound 27, (S)-1-(1-Hydroxy-3-phenylpropan-2-yl)-3-(4-(pyridin-4-yl)phenyl)urea] | –
15 | 1700 | 100 | O=C(Nc1ccc(-c2ccncc2)cc1)N[C@H](CO)c1ccccc1 [Compound 24, (S)-1-(2-Hydroxy-1-phenylethyl)-3-(4-(pyridin-4-yl)phenyl)urea] | LE (Ligand Efficiency), ROCK1 (ROCK1): 0.31; fold difference for ROCK1 (ROCK1; 24 (S) versus 23 (R)): five fold; LE (Ligand Efficiency), ROCK2 (ROCK2 [1]): 0.38; fold more kinase inhibitory activity for ROCK 2 (ROCK2 [1]; 24 (S) versus 23 (R)): 75 fold; P-MLC2 levels ([3]; 1 μM): greatly decreased; P-MLC2 levels ([3]; 10 μM): greatly decreased
16 | 65000 | 40000 | CC(=O)Nc1ccc2[nH]ncc2c1 [N-(1H-indazole-5-yl)acetamide] | –
17 | 2200 ± 1000 | 1100 ± 300 | O=C(NCCc1ccc(Cl)cc1)Nc1ccc2[nH]ncc2c1 [Compound 17, 1-(4-Chlorophenethyl)-3-(1H-indazol-5-yl)urea] | –
18 | 1150 | 260 | O=C(NCc1ccccc1)Nc1ccc(-c2ccncc2)cc1 [Compound 22, 1-Benzyl-3-(4-(pyridin-4-yl)phenyl)urea] | –
19 | 4600 ± 2100 | 2300 ± 600 | O=C(Nc1ccc2[nH]ncc2c1)N[C@H](CO)Cc1ccccc1 [Compound 14, (S)-1-(1-Hydroxy-3-phenylpropan-2-yl)-3-(1H-indazol-5-yl)urea] | –
20 | 9000 | 8000 | O=C(Nc1ccc(-c2ccncc2)cc1)N[C@@H](CO)c1ccccc1 [Compound 23, (R)-1-(2-Hydroxy-1-phenylethyl)-3-(4-(pyridin-4-yl)phenyl)urea] | LE (Ligand Efficiency), ROCK1 (ROCK1): 0.28; LE (Ligand Efficiency), ROCK2 (ROCK2 [1]): 0.28; IC50 (ROCK2 [1]; values in nM): 7520 nM; P-MLC2 levels ([3]; 1 μM): no effect; P-MLC2 levels ([3]; 10 μM): less potent than 24
21 | 1410 | 5360 | O=C(Nc1ccc(-c2ccncc2)cc1)N[C@@H](CO)Cc1ccccc1 [Compound 26, (R)-1-(1-Hydroxy-3-phenylpropan-2-yl)-3-(4-(pyridin-4-yl)phenyl)urea] | –
22 | 2600 ± 600 | 800 ± 300 | COc1ccc(CCNC(=O)Nc2ccc3[nH]ncc3c2)cc1 [Compound 16, 1-(1H-Indazol-5-yl)-3-(4-methoxyphenethyl)urea] | –

From patent US9409868B2, “Inhibitors of rho associated protein kinases (ROCK) and methods of use” (H. LEE MOFFITT CANCER CENTER AND RESEARCH INSTITUTE, INC., priority 2012, dated 2016)
